{"source": "patent US20060127486A1", "about": "“Ceramic structures for prevention of drug diversion” (priority 2004, published 2006)", "origin": "cited, not measured here"}
{"set-up": "reference not given here", "settings": "equianalgesic doses of various opioids, given as an aid to exact dose determination", "units": {"equianalgesic dose": "mg"}}
{"smiles": "COc1ccc2c3c1O[C@H]1[C@@H](O)C=C[C@H]4[C@@H](C2)N(C)CC[C@@]341", "note": "[codeine]", "equianalgesic dose": 90.0}
{"smiles": "COc1ccc2c3c1O[C@H]1C(=O)CC[C@H]4[C@@H](C2)N(C)CC[C@]314", "note": "[hydrocodone]", "equianalgesic dose": 15.0}
{"smiles": "CN1CC[C@]23CCCC[C@H]2[C@H]1Cc1ccc(O)cc13", "note": "[levorphanol]", "equianalgesic dose": 1.8}
{"smiles": "CCC(=O)C(CC(C)N(C)C)(c1ccccc1)c1ccccc1", "note": "(stereo not shown) [methadone]", "equianalgesic dose": 9.0}
{"smiles": "COc1ccc2c3c1O[C@H]1C(=O)CC[C@@]4(O)[C@@H](C2)N(C)CC[C@]314", "note": "[oxycodone]", "equianalgesic dose": 13.5}
{"set-up": "reference not given here", "settings": "in vivo", "units": {"equianalgesic dose": "mg"}}
{"smiles": "CCOC(=O)C1(c2ccccc2)CCN(C)CC1", "note": "[meperidine]", "equianalgesic dose": 135.0}
{"smiles": "CN1CC[C@]23c4c5ccc(O)c4O[C@H]2[C@@H](O)C=C[C@H]3[C@H]1C5", "note": "[morphine]", "equianalgesic dose": 27.0}
